Measurements reported in patent publication US20110263577A1 (priority 2008, published 2011).
pIC50: −log10 of the molar value. Where a name gives a salt, the structure may show the parent alone.

biological target: α7-subtype of nicotinic receptors (Rattus norvegicus, UniProt Q05941); experiment: biochemical; format: binding
Sequence (Q05941 23-502): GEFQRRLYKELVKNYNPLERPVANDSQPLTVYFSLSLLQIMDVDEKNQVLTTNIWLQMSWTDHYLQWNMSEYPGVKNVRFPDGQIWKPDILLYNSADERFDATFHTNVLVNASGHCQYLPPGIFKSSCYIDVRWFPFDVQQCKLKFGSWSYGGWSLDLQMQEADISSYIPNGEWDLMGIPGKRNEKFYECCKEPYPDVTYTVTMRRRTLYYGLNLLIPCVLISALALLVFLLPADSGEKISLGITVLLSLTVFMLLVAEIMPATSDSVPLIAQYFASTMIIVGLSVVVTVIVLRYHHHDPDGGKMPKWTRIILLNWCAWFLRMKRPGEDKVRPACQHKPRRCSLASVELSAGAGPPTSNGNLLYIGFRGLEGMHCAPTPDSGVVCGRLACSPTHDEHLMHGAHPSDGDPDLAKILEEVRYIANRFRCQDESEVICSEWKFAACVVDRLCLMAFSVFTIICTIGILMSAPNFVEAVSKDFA

| Compound | pIC50 |
| --- | --- |
| c1ccc2c(c1)CC(c1nnc(N3CCN4CCC3CC4)o1)C2 [Compound 1, 4-(5-Indan-2-yl-[1,3,4]oxadiazol-2-yl)-1,4-diaza-bicyclo[3.2.2]nonane fumaric acid salt] | 6.21 |
| c1ccc2c(c1)OC(c1nnc(N3CCN4CCC3CC4)o1)O2 [Compound 2, 4-(5-Benzo[1,3]-dioxol-2-yl-[1,3,4]oxadiazol-2-yl)-1,4-diaza-bicyclo[3.2.2]nonane fumaric acid salt] | 6.12 |
| c1ccc2c(c1)OCC(c1nnc(N3CCN4CCC3CC4)o1)O2 (stereo not drawn) [Compound 3, 4-[5-(2,3-Dihydro-benzo[1,4]dioxin-2-yl)-[1,3,4]oxadiazol-2-yl]-1,4-diaza-bicyclo[3.2.2]nonane fumaric acid salt] | 5.74 |
